From patent US20210038681A1, “PHARMACEUTICAL COMPOSITION FOR TREATING VIRAL HEPATITIS C” (priority 2018, published 2021)
Read-outs that look alike come from different tables or passages of the source.

Columns and labels:
[1] = test system: HCV 1a Wild-type replicon; test: microbe, parasite or virus in culture; conditions: Hepatitis C virus, Huh-7, read-out: Mean EC50 (nM) ± SD
[2] = test system: HCV 1a Wild-type replicon; conditions: read-out: Mean EC50 (nM) ± SD; HCV 1a variant Wild-type; Huh7-Lunet cells

| SMILES | EC50 [1] [nM] | EC50 [2] [nM] |
| --- | --- | --- |
| CNC(=O)c1c(-c2ccc(F)cc2)oc2cc(N(CCO)S(C)(=O)=O)c(C3CC3)cc12 [HCV-796] | 11.8 |  |
| C[C@@]1(F)[C@H](O)[C@@H](CO)O[C@H]1n1ccc(N)nc1=O [PSI-6130] |  | 770 |
